Test results from patent US20110207697A1, “XANTHOHUMOL COMPOSITIONS AND METHODS FOR TREATING SKIN DISEASES OR DISORDERS” (Betal, LLC, priority 2008, published 2011).

Columns and labels:
[1] = ORAC-Total (ORAClipo + ORAChydro); settings: ORAClipo + ORAChydro
Text: An ORAC method for lipophilic antioxidants was further developed and validated using fluorescein as the fluorescent probe (Prior et al. 2003 J. Agric. Food Chem. 51: 3273-3279). This method has the advantage that similar assay conditions and standards can be used for both hydrophilic and lipophilic antioxidant components, such that the two values can be added together to obtain a total antioxidant capacity. In the present work, the ORAC value is expressed as the sum of values of both the water-soluble and fat-soluble parts. Green tea catechins (Polyphenon 60) were used as the control with the highest ORAC value among edible plants. Vitamin C and vitamin E were used as controls for water- and fat-soluble molecules, respectively. […] The SOAC scores are not included in this figure; ORAC values used are the sum of lipophilic and hydrophilic results. For each assay category, scaling was made logarithmic so that the plot on the chart resembles the associated rating. […] The larger the spatial area, the higher the overall antioxidative capacity. […] Both hydrophilic and lipophilic oxygen radical absorbance capacity (ORAC) assays were carried out at Brunswick Laboratory (Wareham, Mass.) based on the modified ORACfl method reported by Ou et al. (2001 J. Agric. Food Chem. 49: 4619-4626, 2002 J. Agr. Food Chem. 50: 3122-3128). Trolox, a water-soluble vitamin E analog, was used as the calibration standard. The data are expressed as mmole of Trolox equivalents per gram (mmol TE/g). The acceptable precision of the ORAC assay is a 15% relative standard deviation. Caffeic acid was used as the calibration standard. Hydroxyl radical ORAC (HOR-AC) is expressed as mmole caffeic acid equivalent per gram (mmol CAE/g). Trolox was used as the calibration standard. The peroxyl nitrite ORAC (NORAC) result is expressed as mmol TE/g. Alpha-tocopherol (vitamin E) was used as the calibration standard, and the singlet oxygen absorbance capacity (SOAC) result is expressed as mmole a-tocopherol equivalent (mmol VtE) per gram (Aubry et al. 1989). The abbreviation for the 1,1-diphenyl-2-picrylhydrazyl radical is DPPH. Radical-scavenging activity was measured by the change in absorbance at 517 nm with the DPPH result expressed as mmol TE/g. Similarly, FRAP is an abbreviation for the ferric reducing antioxidative power method, which utilizes chemical conversion of the yellow Fe 3+-2,4,6-tripyridyl s-triazine (TPTZ) complex to the blue Fe 2+-TPTZ complex by electron donation under acidic conditions (Okada and Okada 1998 J. Agric. Food Chem. 46: 401-406). The FRAP result is expressed as mmol TE/g (Ou et al. 2002b). Superoxide dismutase (SOD) was used as a calibration standard; the SOD result is expressed as kilo unit SOD equivalent (kunitSODeq) per gram.

[2] = Lipophilic oxygen radical absorbance capacity (ORAC-L); settings: lipid soluble antioxidant capacity; expressed as mmol TE/g; — = No activity detected
Text: Thus the ORAC method has become a widely used method for assessing antioxidant capacity in biological samples and foods. However, because of its inability to measure both hydrophilic and lipophilic antioxidants, the method has its limitations. An ORAC method for lipophilic antioxidants was further developed and validated using fluorescein as the fluorescent probe (Prior et al. 2003 J. Agric. Food Chem. 51: 3273-3279). […] In the present work, the ORAC value is expressed as the sum of values of both the water-soluble and fat-soluble parts. […] Both hydrophilic and lipophilic oxygen radical absorbance capacity (ORAC) assays were carried out at Brunswick Laboratory (Wareham, Mass.) based on the modified ORACfl method reported by Ou et al. (2001 J. Agric. Food Chem. 49: 4619-4626, 2002 J. Agr. Food Chem. 50: 3122-3128). Trolox, a water-soluble vitamin E analog, was used as the calibration standard. The data are expressed as mmole of Trolox equivalents per gram (mmol TE/g). […] Hydroxyl radical ORAC (HOR-AC) is expressed as mmole caffeic acid equivalent per gram (mmol CAE/g). […] The peroxyl nitrite ORAC (NORAC) result is expressed as mmol TE/g. […] Radical-scavenging activity was measured by the change in absorbance at 517 nm with the DPPH result expressed as mmol TE/g. […] The FRAP result is expressed as mmol TE/g (Ou et al. 2002b).

[3] = Singlet oxygen absorbance capacity (SOAC); settings: expressed as mmol VtE/g
Text: [table] Alpha-tocopherol (vitamin E) was used as the calibration standard, and the SOAC result is expressed as mmol VtE/g. The higher the SOAC score, the higher the singlet oxygen-quenching capacity. […] Singlet oxygen has been postulated to be a highly reactive and toxic intermediate against skin. It is known that the acne-causing bacterium P. acnes naturally produces high amounts of intracellular porphyrins, mostly coproporphyrin (Ashkenazi et al. 2003). Singlet oxygen can be generated on the skin surface from P. acnes porphyrins under sunlight and induce serious skin damage ([…] et al. 1996 Biochem. Biophys. Res. Commun. 223: 578-582). Various skin disorders progress through a singlet oxygen-dependent mechanism, including acne, atopic dermatitis, and skin aging. Both hydrophilic and lipophilic oxygen radical absorbance capacity (ORAC) assays were carried out at Brunswick Laboratory (Wareham, Mass.) based on the modified ORACfl method reported by Ou et al. (2001 J. Agric. Food Chem. 49: 4619-4626, 2002 J. Agr. Food Chem. 50: 3122-3128). Trolox, a water-soluble vitamin E analog, was used as the calibration standard. The data are expressed as mmole of Trolox equivalents per gram (mmol TE/g). The acceptable precision of the ORAC assay is a 15% relative standard deviation. Caffeic acid was used as the calibration standard. Hydroxyl radical ORAC (HOR-AC) is expressed as mmole caffeic acid equivalent per gram (mmol CAE/g). Trolox was used as the calibration standard. The peroxyl nitrite ORAC (NORAC) result is expressed as mmol TE/g. Alpha-tocopherol (vitamin E) was used as the calibration standard, and the singlet oxygen absorbance capacity (SOAC) result is expressed as mmole a-tocopherol equivalent (mmol VtE) per gram (Aubry et al. 1989). […] Radical-scavenging activity was measured by the change in absorbance at 517 nm with the DPPH result expressed as mmol TE/g. […] The FRAP result is expressed as mmol TE/g (Ou et al. 2002b). Superoxide dismutase (SOD) was used as a calibration standard; the SOD result is expressed as kilo unit SOD equivalent (kunitSODeq) per gram.

In the case of `O=C1O[C@H]([C@@H](O)CO)C(O)=C1O` [Vitamin C, reference compound], the “ORAC-Total (Trolox equivalent)” value [1] is reported as 1.4 Trolox equivalent.
In the case of `Cc1c(C)c2c(c(C)c1O)CC[C@@](C)(CCC[C@H](C)CCC[C@H](C)CCCC(C)C)O2` [Vitamin E, Alpha-tocopherol, reference compound], the “ORAC-L (Trolox equivalent)” value [2] is reported as 0.75 Trolox equivalent, the “ORAC-Total (Trolox equivalent)” value [1] is reported as 0.75 Trolox equivalent and the “SOAC (Vitamin E equivalent)” value [3] is reported as 1.0 Vitamin E equivalent.
